Here are results for 14 molecules from publication PMC5464627, “Design of short peptides to block BTLA/HVEM interactions for promoting anticancer T-cell responses” (PLoS ONE, 2017).

In series [1] the test system is 293T cells expressing BTLA, binding of rhHVEM-Fc. The experiment in a line: BTLA/HVEM interaction cell line assay (flow cytometry). The class given is cell-based. The conditions noted are these: 293T cells expressing human BTLA pre-incubated with 5 mg/mL for 1 h at 4°C, then rhHVEM-Fc 8 μg/ml and AF647 anti-human IgG; at least two experiments in triplicate. As for the experimental part: 293T cells expressing BTLA (generous gift from Dr. C. Krummenacher, University of Pennsylvania, USA) were maintained in culture with RPMI 10% FCS supplemented with 0.2 mg/ml hygromycin B. 2x10^5 293T cells expressing BTLA were incubated with […] 8μg/ml in PBS 0.5% BSA for 30min at 4°C. Cells were then washed and incubated with goat anti-human Fc conjugated with AF647 for 20min at 4°C (Jackson ImmunoResearch, #109-606-170). Inhibition of HVEM-BTLA binding by different peptides was assessed by pre-incubating the cells with the different peptides at 5 mg/ml for 1h at 4°C. BTLA expression was controlled by anti-BTLA APC-conjugated antibody (Biolegend, #344510). Maximum inhibition of binding was determined by adding anti-BTLA7.1 antibody for 1h at 4°C at 2μg/ml before adding […]. Sample acquisition was performed on the Gallios Flow-Cytometer (Beckman Coulter) and data were analyzed using the FlowJo Software (TreeStar).  Fig 7 Blocking capacity of HVEM(23-39) fragment and free amino acids in a cellular assay. 293T cells expressing human BTLA were incubated with peptides or free amino acids (5mg/mL) prior labeling with […] AF647-conjugated anti-human IgG antibody (at least two experiments in triplicate).
In general terms: Flow cytometry measures light scatter and fluorescence of single cells or particles in a stream.

Series [2] has as its system BTLA/HVEM interaction (BTLA-Fc coated, HVEM-Fc). The experiment in a line: Competitive BTLA/HVEM ELISA. The series is classed as binding, human. The conditions noted are these: peptide or amino acid at 5, 1 and 0.1 mg/mL, 2 h at 37°C; relative to PBS (0%) and anti-BTLA 7.1 mAb (100%); at least two experiments in triplicate. The source says:
(§1) The recombinant human BTLA protein used in affinity tests was purchased form Novoprotein (Company product code: C563). For ELISA, recombinant human BTLA-Fc, HVEM-Fc as well as anti-human BTLA (#7.1) blocking monoclonal antibody (mAb) and anti-human HVEM (#11.8) non-blocking mAb were described previously. Anti-HVEM mAb was biotinylated using the Biotin Labeling Kit-NH2 (Abnova, #KA0003), according manufacturer’s instruction.
96-well round bottom plates (medium binding; Greiner Bio-One) were coated with 400 ng/well of recombinant BTLA-Fc protein in PBS (50 μL/well) and incubated overnight at 4°C. Wells were washed twice with PBS-T (phosphate buffer saline with 0.1% Tween-20, pH 7.4) and blocked with 1% milk in PBS-T for 1 hour at 37°C. […] Maximum binding of HVEM to BTLA was controlled by adding 1% milk/PBS-T to negative control wells, whereas maximum inhibition was monitored by adding anti-BTLA 7.1 mAb (0.1 μg/well). Next, the plate was washed and incubated with recombinant HVEM-Fc protein at 400 ng/well in 1% milk/PBS-T for 1 hour at 37°C. Biotinylated anti-HVEM 11.8 antibody was then added (biotinylated preparation diluted at 1/10 000 in 1% milk/PBS-T) and incubated for 1 hour at 37°C. Streptavidin horseradish peroxidase (Dako) was finally added at a 1/8000 dilution in 1% BSA/PBS-T for 30 min at 37°C and detected with TMB (Biorad). The substrate reaction was blocked with 0.2 M H2SO4 and the absorbance was read at 450 nm and 630 nm. […] Statistical analysis of the results was performed using the one-way analysis of variance (one-way ANOVA).
In general terms: In an ELISA, binding on a coated surface is turned into a signal by an enzyme label.

A short description of series [3]: Ellman's assay of free thiols. The series is classed as physicochemical. The conditions noted are these: for Presence of free thiol groups: DTNB, 0.1 M sodium phosphate pH 7.4, 1 mM EDTA, absorbance at 412 nm. As for the experimental part:
The presence of free thiols was investigated using Ellman’s assay. DTNB (Sigma Aldrich) was first dissolved in reaction buffer (0.1 M sodium phosphate, pH 7.4, containing 1 mM EDTA) at a concentration of 4 mg/ml. Then peptides and recombinant BTLA-Fc, alone or mixed together (ratio 1:1) were added in DTNB reaction buffer. After 15 minutes of incubation, the SH content of protein samples was then assessed by the measurement of absorbance at 412 nm. For each sample, the absorbance value from the blank was subtracted.
In general terms: Ellman's reagent forms a yellow product with free thiols.

In series [4] the test system is recombinant human BTLA protein. The experiment in a line: Microcolumn affinity test (BTLA-Sepharose, MALDI-MS of fractions). The class given is binding. The conditions noted are these: for Interaction with BTLA immobilised in microcolumn (in words): BTLA-Sepharose microcolumn, 2 h at 25°C, pH 7.4, MS of elution fraction; for Elution [M+H]+1 (peptide signal in elution fraction = complex with BTLA formed; - = no signal): BTLA immobilised on NHS-Sepharose microcolumn, peptide incubated 2 h at 25°C in NH4HCO3 pH 7.4, eluted with 0.1% TFA, MALDI TOF/TOF. As to the method: as §1
The immobilization of BTLA protein in a microcolumn was performed using the NHS-activated acid-coupled Sepharose 4B (Sigma Aldrich). BTLA protein was dissolved in 100 μl of coupling buffer (0.2 M NaHCO3, 0.5 M NaCl, pH 8.3) and was added to 0.06 g NHS-activated Sepharose in 100 μl of coupling buffer. The coupling reaction was performed for 1 hour in 25°C and the mixture was transferred into the microcolumn (MoBiTec, Goettingen, Germany). The microcolumn with immobilized protein was washed alternately with 10 ml of solution blocking buffer (0.1 M amino ethanol, 0.5 M NaCl, pH 8.3) and washing buffer (0.1 M CH3COONa, 0.5 M NaCl, pH 4). This step was repeated 4 times. The microcolumn was stored in PBS (pH 7.4).
Peptide affinity assay using NHS-activated Sepharose microcolumn was already described elsewhere. The peptides were added onto BTLA-Sepharose column equilibrated in ammonium hydrogen carbonate (NH4HCO3, pH 7.4) and incubated for 2 h at 25°C with gentle shaking. After this time the unbound peptide was removed and the column was washed with […] NH4HCO3 and 20 ml of H2O. Dissociation of the protein—peptide complex was performed using 0.1% TFA in H2O (2 x 0.5 ml) by 15 minutes. All fractions were analyzed using mass spectrometry (MALDI TOF/TOF™ 5800, AB SCIEX).
Fig 2 Microcolumn affinity test. Microcolumn affinity test results for binding of HVEM(23–39) fragment to BTLA: (A) supernatant, (B) last wash and (C) elution fractions. The MS measurements were done with the use of MALDI TOF/TOF 5800 (ABSciex, Germany). As a matrix α-cyano-4-hydroxycinnamic acid (CHCA, 10 mg/ml, Sigma-Aldrich) was used. The measurements were done in reflector positive mass mode with previous mass calibration with commercial standard peptide mixture (The Peptide Mass Standards Kit for Calibration of AB SCIEX MALDI-TOF™ Instruments).

In series [5] the target is T1, recombinant human BTLA-Fc (human, UniProt Q7Z6A9 31-157).
T1 construct: B and T lymphocyte attenuator (BTLA), human, fused to Fc; also called rhBTLA-Fc
T1 sequence (looked up): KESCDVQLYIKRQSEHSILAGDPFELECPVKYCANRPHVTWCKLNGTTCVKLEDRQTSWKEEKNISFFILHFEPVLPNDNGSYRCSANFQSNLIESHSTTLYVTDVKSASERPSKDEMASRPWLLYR
The experiment in a line: ELISA; competitive: BTLA-Fc coated at 400 ng/well; peptides in 1% milk/PBS-T 2 h at 37°C; washed; HVEM-Fc 400 ng/well 1 h at 37°C; detected with biotinylated anti-HVEM 11.8 and streptavidin-HRP; percent inhibition relative to anti-BTLA 7.1 mAb (100%) and buffer (0%). The conditions noted are these: both partners purified.

Positions of bridges follow the written chain, without caps; N, C: chain ends.

With `N[C@@H](CS)C(=O)O` [cysteine, reference compound], in series [1], the “Blocking of BTLA/HVEM binding in cellular assay (GMFI, in words)” value is on record as “blocked BTLA/HVEM complex formation”. For the same molecule, the “Inhibition of BTLA/HVEM ligation in ELISA (in words)” value (“Inhibition of BTLA/HVEM ligation” below) in series [2] is “prevented partially the binding of HVEM”.
As for `N[C@@H](CSSC[C@H](N)C(=O)O)C(=O)O` [cystine, reference compound], in series [2], the “Inhibition of BTLA/HVEM ligation” value is listed as “the inhibitory properties were not observed”.
Still for that read-out and setting: under `CSCC[C@H](N)C(=O)O` [methionine, reference compound] stands “the inhibitory properties were not observed”.
Regarding “Ac-ELCAGPVTRKVECTYGE-NH2 [Scrambled peptide, scrambled control of HVEM(23–39), Ac-…-NH2, reference compound]”, the “Presence of free thiol groups” value in series [3] was “contains free thiol groups”. For the same molecule, in series [2], the “Inhibition of BTLA/HVEM ligation” value is “has no effect”. Besides, the “Interaction with BTLA immobilised in microcolumn (in words)” value (from here on “Interaction with BTLA immobilised”) in series [4] is on record as “did not interact with BTLA immobilized in microcolumn”.
On to “Ac-ELTGTVCEP-NH2 [HVEM(31–39), 9 amino acid-long HVEM fragment 31–39]”, for which the “Inhibition of BTLA/HVEM ligation” value in series [2] is “showed a lower percentage of inhibition than the HVEM(23–39)”. In addition, the “Elution [M+H]+1 (peptide signal in elution fraction = complex with BTLA formed; - = no signal)” value in series [4] was 989.3.
In the case of “Ac-ELTGTVS^37EP-NH2 [HVEM(31–39) C37S, HVEM(31–39) analog with Cys37 replaced by serine]”, the “Inhibition of BTLA/HVEM ligation” value in series [2] is listed as “no blocking capacity”.
In the case of “Ac-YRVKEACGELTGTVCEP-NH2 (disulfide 7-15 (inferred); SMILES CC(=O)N[C@@H](Cc1ccc(O)cc1)C(=O)N[C@@H](CCCNC(=N)N)C(=O)N[C@H](C(=O)N[C@@H](CCCCN)C(=O)N[C@@H](CCC(=O)O)C(=O)N[C@@H](C)C(=O)N[C@H]1CSSC[C@@H](C(=O)N[C@@H](CCC(=O)O)C(=O)N2CCC[C@H]2C(N)=O)NC(=O)[C@H](C(C)C)NC(=O)[C@H]([C@@H](C)O)NC(=O)CNC(=O)[C@H]([C@@H](C)O)NC(=O)[C@H](CC(C)C)NC(=O)[C@H](CCC(=O)O)NC(=O)CNC1=O)C(C)C) [HVEM(23–39) (C29-C37), cyclic HVEM(23–39) with disulfide bridge, oxidized cysteines]”, the “Inhibition of BTLA/HVEM ligation” value in series [2] was “no blocking of BTLA/HVEM interaction was observed”. For the same molecule, in series [4], the “Elution [M+H]+1 (peptide signal in elution fraction = complex with BTLA formed; - = no signal)” value is 1893.9 and the “Interaction with BTLA immobilised” value is “interacted with BTLA in affinity test”.
“Ac-YRVKEACGELTGTVCEP-NH2 [HVEM(23–39), HVEM fragment 23–39, Ac-…-NH2, free sulfhydryl groups]”: in series [3], the “Presence of free thiol groups” value is “observed free thiol groups”. In addition, in series [3] (Ellman's assay, pH 7.4, peptide alone, 2 hours, suggests a fraction of the peptide is oxidized), the “Concentration of free thiol groups after 2 hours of incubation, peptide alone” value was “lower”. Moreover, the “Concentration of free thiol groups over time, peptide incubated with BTLA-Fc” value in series [3] (Ellman's assay, pH 7.4, peptide mixed with recombinant BTLA-Fc (ratio 1:1)) is listed as “decrease in the concentration of free thiol groups over time, which was more pronounced than in the condition where the peptide was alone”. Further, in series [1], the “Blocking of BTLA/HVEM binding in cellular assay (GMFI, in words)” value is recorded as “almost no blocking of the BTLA/HVEM binding was observed”. Further, the “Inhibition of BTLA/HVEM ligation” value in series [2] is listed as “can partially prevent the ligation of HVEM to BTLA, in a dose dependent manner”. Besides, in series [4], the “Interaction with BTLA immobilised” value is “complex between BTLA and HVEM(23–39) was formed”.
Consider “Ac-YRVKEAS^29GELTGTVCEP-NH2 [HVEM(23–39) C29S, HVEM(23–39) analog with Cys29 replaced by serine]”, for which the “Elution [M+H]+1 (peptide signal in elution fraction = complex with BTLA formed; - = no signal)” value in series [4] came to 1879.7.
As to “Ac-YRVKEAY^29GELTGTVCEP-NH2 [HVEM(23–39) C29Y, HVEM(23–39) analog with Cys29 replaced by tyrosine]”, the “Elution [M+H]+1 (peptide signal in elution fraction = complex with BTLA formed; - = no signal)” value in series [4] came to 1955.7.
On to “C29A: single alanine-substituted HVEM(23–39) variant, cysteine 29 replaced by alanine (Ac-YRVKEAAGELTGTVCEP-NH2)”, for which the “Inhibition of BTLA/HVEM ligation” value in series [2] is reported as “significant reduction of the inhibition”.
Regarding “C37A: single alanine-substituted HVEM(23–39) variant, cysteine 37 replaced by alanine (Ac-YRVKEACGELTGTVAEP-NH2)”, in series [2], the “Inhibition of BTLA/HVEM ligation” value is on record as “significant reduction of the inhibition”.

B1: HVEM(23–39) peptide (peptide)
peptide: YRVKEACGELTGTVCEP
modifications: not fully specified; N-terminal acetyl (Ac-); C-terminal amide (-NH2)
notes: herpes virus entry mediator (HVEM), human, residues 23-39 of the CRD1 domain; Linear, with two free sulfhydryl groups; also called HVEM(23–39) fragment; wild-type peptide HVEM(23–39); source: synthetic peptide (SPPS, RP-HPLC purified)
As for B1, the binding result in series [5] is listed as “binds”.

B2: HVEM(31–39) (peptide)
peptide: Ac-ELTGTVCEP-NH2
notes: herpes virus entry mediator (HVEM), human, residues 31-39; also called HVEM (31–39) fragment; source: synthetic peptide (SPPS, RP-HPLC purified)
For the molecule B2, the binding result in series [5] was “binds”.
